Laboratory results reported in patent US6566368B2, “Apomorphine-containing dosage form for ameliorating male erectile dysfunction” (Pentech Pharmaceuticals, Inc., priority 1994, dated 2003).

Tests used:
[1] = test system: patients with psychogenic impotence; settings: nicotine e.g. by smoking
[2] = test system: patients with psychogenic impotence; settings: patients on liquid sublingual apomorphine 10 mg and 20 mg

SMILES | counteraction of adverse effects of the 5 mg apomorphine dose (nausea, diaphoresis, etc.) [1] | counteraction of apomorphine adverse effects (nausea, vomiting, diaphoresis, etc.) [2]
CN1CCCC1c1cccnc1 (stereo not drawn) [nicotine] | can be counteracted | –
O=c1[nH]c2ccccc2n1CCCN1CCC(n2c(=O)[nH]c3cc(Cl)ccc32)CC1 [Domperidone] | can be counteracted | can be counteracted
